Assay results reported in patent US9492546B2, “Use of bethanechol for treatment of Xerostomia” (Acacia Pharma Limited, priority 2011, dated 2016).

Tests used:
[1] = system: rabbits; assay: Blood pressure and heart rate in anaesthetised rabbits (separate experiment); format: in vivo, rabbit; settings: intravenous, dose-related at 30, 100 and 300 μg/kg
Description: In a further, separate experiment, formulation 14C and its matching placebo were given to 3 anaesthetised rabbits in which blood pressure, via an indwelling cannula in the carotid artery, was monitored, along with heart rate.

[2] = system: New Zealand White rabbits; assay: Heart rate in anaesthetised rabbits, topical formulations versus IV bethanechol; format: in vivo, rabbit; settings: range of doses
Description: More specifically, adult male New Zealand White rabbits, of approximate body weight 2.0 to 3 kg, were allocated in groups of three to be treated with formulations of bethanechol given in Table 1, designated 2, 6, 9 and 14C, along with each of their matching placebos. Animals were anaesthetised with urethane, administered IP, and heart rate was monitored via ECG leads. They were placed in the prone position after being anaesthetised (this inhibits the drug from entering the GI tract). Salivation was measured by inserting pre-weighed cotton wool balls into the oral cavity, removing after five or ten minutes and weighing. The difference in weight provided an estimate of salivary flow.
At the end of the experiment, one animal from each group was given bethanechol intravenously at a range of doses, in order to produce a dose-response curve for heart rate. This was compared to the effect of the active formulations, when given topically, on heart rate.

[3] = cited from earlier work
[4] = system: healthy volunteers; assay: Phase 1 study, formulation applied topically to the oral mucosa; format: in vivo, human; settings: oral and oromucosal
Experimental: In a Phase 1 study involving four healthy volunteers, Formulation 14C applied topically to the oral mucosa at doses up to 20 mg, kept in situ for two minutes.
This local absorption is likely to deliver enough bethanechol to the minor salivary glands, numbering in the hundreds to thousands and located immediately below the oral mucosa, to stimulate them to produce mucin-rich saliva which is disproportionately important for ensuring a comfortable month feel. When added to the salivary stimulation achieved by oral ingestion of bethanechol, it may reasonably be concluded that the formulation can produce better relief from xerostomia, with fewer side-effects, than purely systemic dosing of bethanechol.

[5] = cited from earlier work; remark: listed apart in the source
[6] = system: patients with xerostomia; settings: administered orally, small number of clinical studies; cited from earlier work

CC(C[N+](C)(C)C)OC(N)=O (centres unmarked) [bethanechol chloride, Bethanechol chloride]
Effect on blood pressure [1]: reduced | Effect on heart rate [1]: reduced | Effect on heart rate [2]: marked and dose-dependent bradycardia | Penetration into the CNS ([3]; at therapeutic doses): does not significantly penetrate into the CNS | Absorption from the GI tract ([3]; in vivo): only poorly absorbed | Pharmacokinetics (linearity) [4]: linear | aqueous solubility [5]: high | Salivary flow [6]: increase salivary flow
